# Results published in US8236858B2, “Substituted aryl-indole compounds and their kynurenine/kynuramine-like metabolites as therapeutic agents” (Neurim Pharmaceuticals (1991) Ltd., priority 2006, dated 2012).
# Columns and labels:
# [1] = target: T1, GSK3β (Homo sapiens, UniProt P49841); experiment: Evaluation of GSK3β activity: inhibition of purified GSK3β, [γ-32P]ATP / GS-2 peptide filter assay; type: biochemical; details: for IC50: purified GSK3β expressed in Sf9 cells, 15 μM ATP, GS-2 peptide substrate, 30 min at 30° C.; for inhibiting activity on GSK3β activity (in words): summary of Table 1
# T1 construct: made in house; host or cells: insect Sf9 cells
# T1 sequence (P49841 whole entry, species assumed): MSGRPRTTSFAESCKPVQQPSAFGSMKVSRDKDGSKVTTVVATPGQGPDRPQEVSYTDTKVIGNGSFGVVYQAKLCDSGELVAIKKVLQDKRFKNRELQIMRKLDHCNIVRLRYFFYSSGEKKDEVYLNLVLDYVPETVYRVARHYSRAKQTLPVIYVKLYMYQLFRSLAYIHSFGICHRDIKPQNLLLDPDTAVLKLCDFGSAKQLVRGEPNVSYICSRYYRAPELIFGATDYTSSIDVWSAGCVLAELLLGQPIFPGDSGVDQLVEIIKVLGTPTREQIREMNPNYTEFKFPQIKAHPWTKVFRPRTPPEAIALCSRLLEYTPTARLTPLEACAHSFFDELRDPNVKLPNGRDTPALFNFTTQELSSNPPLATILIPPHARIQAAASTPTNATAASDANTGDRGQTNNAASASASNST
# Method: Compounds were evaluated for inhibition against purified GSK3β. GSK3β was expressed in and purified from insect Sf9 cells. Compounds (10 μM) were assayed; following a 1/100 dilution of the enzyme in 1 mg/ml BSA, 10 mM DTT, with 5 μl of 40 μM GS-2 peptide as a substrate, in a buffer, in the presence of 15 μM [γ-^32P]ATP (3000 Ci/mmol; 1 mCi/ml) in a final volume of 30 μl. After 30-min incubation at 30° C., 25-μl aliquots of supernatant were spotted onto 2.5×3 cm pieces of Whatman P81 phosphocellulose paper, and, 20 s later, the filters were washed five times (for at least 5 min each time) in a solution of 10 ml of phosphoric acid/liter of water. The wet filters were counted in the presence of 1 ml of scintillation fluid.
# [2] = test system: MPTP-treated mice; experiment: Anti-Parkinsonian activity in MPTP-treated mice with a sub threshold dose of L-DOPA (motor activity counts); type: in vivo, C57 BL/6 mice; details: for reversal of the motor deficits of MPTP-treated mice (in words): 3 mg/kg, combined with a sub-threshold (inactive) dose of L-Dopa; for LOCOMOTION / REARING / TOTAL ACTIVITY: MPTP-treated mice (2×40 mg/kg s.c.), compound 3 mg/kg orally + 5 mg/kg L-Dopa s.c., counts with Vehicle (no MPTP) = 100%
# Method: Animals: six month old male C57 BL/6 mice, weighing 22-25 g were used. Following arrival at the laboratory, the mice were allowed to acclimatize for two weeks in a room with controlled temperature (21±1° C.), and a constant light-dark schedule (12 hr on/12 hr off, lights on between 06.00 and 18.00 hrs). Free access to food and water was maintained throughout. They were housed in groups of 12 animals and tested only during the hours of light (08.00-15.00 hrs). All testing was performed in a normally lighted room.
# Behavioural measurements and apparatus: An automated device, consisting of macrolon rodent test cages (40×25×15 cm), each placed within two series of infra-red beams (at two different heights, one low and one high, 2 and 8 cm, respectively, above the surface of the sawdust, 1 cm deep), was used to measure spontaneous and/or drug-induced motor activity of 1-methyl 4-phenyl 1,2,3,6-tetrahydropyridine (MPTP) and control mice. The following parameters were measured: LOCOMOTION was measured by the low grid of infrared beams. Counts were registered only when the mouse in the horizontal plane, ambulating around the test-cage. REARING was registered throughout the time when at least one high level beam was interrupted, i.e. the number of counts registered was proportional to the amount of time spent rearing. TOTAL ACTIVITY was measured by a sensor (a pick-up similar to a gramophone needle, mounted on a lever with a counterweight) with which the test cage was constantly in contact. The sensor registered all types of vibration received from the test cage, such as those produced both by locomotion and rearing as well as shaking, tremors, scratching and grooming.
# Behavioral measurements (locomotion, rearing and total activity): Twelve days after MPTP injections (2×40 mg/kg, s.c., 24 hr interval), the mice were administered orally with the different compounds at 3 mg/kg or vehicle (0.1% Tween-80 in 1% methylcellulose) and immediately thereafter placed in the activity test chambers and their motor behaviors were monitored for 60 min. After 60 min, the mice were injected with 5 mg/kg L-Dopa (s.c) and then replaced in the test chamber and activity measurements maintained for an additional 300 min.
# Table 2 presents the locomotion, rearing and total activity counts of MPTP-treated and control mice administered either tested substances or vehicle administered with a sub threshold dose of L-Dopa.
# [3] = test system: NMDA-activated currents; experiment: Electrophysiological characterisation of NMDA-activated currents in freshly isolated hippocampal neurones (whole-cell patch clamp); type: cell-based, Wistar rats; details: for % Inhibition Peak Current / % Inhibition Steady State Current: 1 μM substance, 10 μM glycine, 300 μM L-aspartate, holding potential −70 mV, mean of at least 4 cells; for blocking activity on NMDA-activated currents (in words): summary of Table 3, 1 μM
# Method: Isolation of hippocampal neurons: Wistar rats (12-14 days) were decapitated without anesthesia and the hippocampus was removed. It was manually cut into slices (0.2-0.4 mm), in a solution containing (mM): 150 NaCl; 5 KCL; 1.25 NaH2PO4; 2 CaCl2; 2 MgCl2; 26 NaHCO3; 20 glucose. Slices were preincubated in this solution for 30 min at room temperature. The enzymatic treatment proceeded in the same solution with lower Ca^2+ concentration (0.5 mm) containing 0.4 mg/ml protease from aspergillus oryzae. The incubation in the enzyme solution proceeded at 32° C. within 10 min. Slices were kept subsequently in enzyme-free solution containing normal Ca^2±concentration and used within 6-8 h for obtaining isolated neurons. Throughout the entire procedure the solutions were continuously saturated with a 95% O2 and 5% CO2 gas mixture to maintain pH of 7.4. For cell dissociation the slice was transferred into the extracellular solution containing (mM): 150 NaCl; 5 KCl; 2 CaCl2; 10 n-2-hydroxyethylpiperazine-n′-2-ethanesulphonic acid (Hepes); pH adjusted with NaOH to 7.4. Single cells were isolated from CA and CA3 zones of hippocampal slices by vibrodissociation method. […] After isolation they were usually suitable for the recording for 1-2 h.
# Salines and chemicals: The contents of the extracellular solution was as follows (in mM): 130 NaCl, 5KCl, 2CaCl2, 20 n-2-hydroxyethylpiperazine-n′-2-ethansulfonic acid (Hepes); 0.1 μm TTX, 10 μm glycine, […] 1-aspartate; pH was adjusted with NaOH to 7.4.
# The contents of the intracellular solution were as follows (in mM): 110 CsF, 20 Tris-HCl (pH=7.2). L-aspartate and glycine solutions were prepared on the day of experiment.
# The tested substances were dissolved in DMSO.
# Current recording and data analysis: The drug-containing solutions were applied by the fast “concentration clamp” method using “jumping table” set-up. The currents were recorded with patch clamp technique in the whole-cell configuration. Recording of the currents was performed using EPC-7 L/M patch-clamp amplifier.
# NMDA-activated currents: The currents were filtered at 3 kHz (three-pole active Bessel filter) digitally sampled at the rate 6000 μs per point for NMDA activated currents. NMDA-induced transmembrane currents were measured in the presence of 10 μM glycine and 300 μM L-aspartate in the control and test solutions. The currents were recorded at holding potential −70 mV.
# Calculations: The inhibition of current at 1 μM of the substance was averaged at least for 4 cells. The effect of substance was measured as the mean ratio I/Io where I was the current under the action of substance and Io was the current in control conditions.
Structure (SMILES),IC50 [1] [µM],inhibiting activity on GSK3β activity (in words) [1],reversal of the motor deficits of MPTP-treated mice (in words) [2],LOCOMOTION [2] [%],REARING [2] [%],TOTAL ACTIVITY [2] [%],% Inhibition Peak Current [3] [%],% Inhibition Steady State Current [3] [%],blocking activity on NMDA-activated currents (in words) [3]
COc1ccc2[nH]cc(CCNc3ccccc3[N+](=O)[O-])c2c1 [N-(2-Nitrophenyl)-5-methoxytryptamine],14.1,significant inhibiting activity,significantly reversed the motor deficits,44,90,73,78,77.3,significant blocking activity
N#Cc1cc([N+](=O)[O-])ccc1NCCc1c[nH]c2ccccc12 [N-(2-cyano-4-nitrophenyl)-tryptamine],12.7,significant inhibiting activity,significantly reversed the motor deficits,52,98,73,83.1,82.44,significant blocking activity
